In EPA's ToxRefDB 2:

What was measured:
[1] = system: mouse; conditions: Carcinogenicity; b6c3f1; Oral; Feed; dose end: 104 week; group: systemic; systemic / pathology microscopic / liver / cellular alteration + systemic / pathology microscopic / liver / fatty change + systemic / …
[2] = system: rat; conditions: Multigenerational reproductive toxicity study, sprague dawley, Oral, Feed, dose end: 2 generation
[3] = system: mouse; conditions: Subchronic oral toxicity in rodents, other, Feed, dose end: 13 week, group: systemic
[4] = system: rat; conditions: Combined chronic toxicity/carcinogenicity, sprague dawley, Oral, Feed, dose end: 104 week
[5] = system: rat; conditions: Prenatal developmental toxicity study, sprague dawley, Oral, Gavage/Intubation, dose end: 16 GD
[6] = system: rat; conditions: Subchronic oral toxicity in rodents, sprague dawley, Feed, dose end: 90 day, group: systemic
[7] = system: rabbit; conditions: Prenatal developmental toxicity study, new zealand white, Oral, Gavage/Intubation, dose end: 18 GD
[8] = system: rat; conditions: Subchronic oral toxicity in rodents, sprague dawley, Feed, dose end: 13 week, group: systemic
[9] = system: mouse; conditions: Sub-acute repeat dose toxicity, other, Oral, Feed, dose end: 4 week, group: systemic
[10] = system: dog; conditions: Chronic toxicity; beagle; Oral; Feed; dose end: 52 week; group: systemic; systemic / organ weight / liver / absolute + systemic / organ weight / liver / relative to body weight + systemic / pathology gross / liver…
[11] = system: rat; conditions: Subchronic oral toxicity in rodents, sprague dawley, Feed, dose end: 90 day, group: systemic; remark: listed apart in the source
[12] = system: dog; conditions: Subchronic oral toxicity in nonrodent, beagle, Feed, dose end: 13 week, group: systemic, systemic / clinical chemistry / alanine aminotransferase (alt/sgpt) / alanine aminotransferase (alt/sgpt) + systemic / clinical chemistry / …
[13] = system: rat; conditions: Combined chronic toxicity/carcinogenicity; other; Oral; Feed; dose end: 22 month; group: systemic; systemic / hematology / erythrocyte (rbc) count differential / erythrocyte (rbc) + systemic / hematology / hematocrit (hct) / hematocrit (…
[14] = system: dog; conditions: Chronic toxicity, beagle, Oral, Feed, dose end: 52 week, group: systemic
[15] = system: rabbit; conditions: Prenatal developmental toxicity study, new zealand white, Oral, Gavage/Intubation, dose end: 19 GD
[16] = system: mouse; conditions: Carcinogenicity; cd1; Oral; Feed; dose end: 18 month; group: systemic; systemic / organ weight / liver / absolute + systemic / organ weight / liver / relative to body weight + systemic / pathology microscopic / …
[17] = system: rat; conditions: Subchronic oral toxicity in rodents, sprague dawley, Feed, dose end: 90 day, group: systemic, systemic / hematology / erythrocyte (rbc) count differential / erythrocyte (rbc) + systemic / hematology / hematocrit (hct) / hematocrit (…
[18] = group: offspring, developmental / developmental malformation / trunk / [other] + developmental / developmental malformation / ureter / hydroureter + systemic…
[19] = group: parental, systemic / in life observation / body weight / body weight + systemic / organ weight / pituitary gland / relative to body weight + systemic…
[20] = group: parental, systemic / organ weight / pituitary gland / relative to body weight + systemic / in life observation / water consumption / water consumption…
[21] = systemic / in life observation / body weight / body weight + systemic / in life observation / body weight / body weight gain + systemic / in…
[22] = group: cholinesterase, cholinesterase / cholinesterase / cholinesterase / erythrocyte cholinesterase (che) + cholinesterase / cholinesterase / cholinesterase / …
[23] = group: systemic, systemic / pathology microscopic / liver / eosinophilic focus
[24] = group: systemic, systemic / pathology microscopic / liver / eosinophilic focus + systemic / pathology microscopic / liver / hypertrophy
[25] = group: developmental, developmental / developmental malformation / bone / cervical + systemic / in life observation / body weight / fetal weight
[26] = group: developmental, developmental / developmental malformation / bone / cervical + systemic / in life observation / body weight / fetal weight + developmental…
[27] = group: maternal, systemic / in life observation / body weight / body weight gain + systemic / in life observation / food consumption / food consumption + …
[28] = systemic / pathology microscopic / liver / hypertrophy
[29] = group: developmental, developmental / developmental malformation / bone / full supernumerary
[30] = group: developmental, developmental / developmental malformation / bone / full supernumerary + systemic / in life observation / body weight / fetal weight
[31] = systemic / organ weight / liver / absolute
[32] = systemic / organ weight / liver / absolute + systemic / organ weight / kidney / absolute + systemic / organ weight / kidney / relative to …
[33] = systemic / organ weight / liver / absolute + systemic / organ weight / liver / relative to body weight + systemic / pathology microscopic / …
[34] = systemic / clinical chemistry / aspartate aminotransferase (ast/sgot) / aspartate aminotransferase (ast/sgot)
[35] = systemic / in life observation / body weight / body weight + systemic / in life observation / body weight / body weight gain + systemic / …
[36] = group: developmental, systemic / in life observation / body weight / fetal weight
[37] = group: maternal, reproductive / reproductive performance / aborted / aborted + systemic / in life observation / clinical signs / body surface staining + …

CCCOCC(=Nc1ccc(Cl)cc1C(F)(F)F)n1ccnc1 [Triflumizole]
LEL [1]: 67.4 mg/kg/day | LOAEL [1]: 67.4 mg/kg/day | NEL [1]: 16.2 mg/kg/day | NOAEL [1]: 16.2 mg/kg/day | LOAEL ([2]; group: offspring, developmental / developmental malformation / trunk / [other] + developmental / developmental malformation / ureter / hydroureter): 8.5 mg/kg/day | LEL [2, 18]: 8.5 mg/kg/day | NEL [2, 18]: 3.5 mg/kg/day | NOAEL [2, 18]: 3.5 mg/kg/day | LOAEL [2, 19]: > 8.5 mg/kg/day | NOAEL [2, 19]: ≥ 8.5 mg/kg/day | LEL [2, 20]: 1.5 mg/kg/day | NEL [2, 20]: < 1.5 mg/kg/day | NOAEL ([2]; group: reproductive, reproductive / reproductive performance / gestational length / gestational length): 3.5 mg/kg/day | LOAEL ([2]; group: reproductive, reproductive / reproductive performance / gestational length / gestational length + reproductive / offspring survival early / litter size / …): 8.5 mg/kg/day | NEL ([2]; group: reproductive, reproductive / reproductive performance / gestational length / gestational length + reproductive / reproductive performance / mating / …): 1.5 mg/kg/day | LEL ([2]; group: reproductive, reproductive / reproductive performance / mating / mating): 3.5 mg/kg/day | LOAEL ([3]; systemic / in life observation / body weight / body weight + systemic / in life observation / body weight / body weight gain): 381 mg/kg/day | LEL [3, 21]: 381 mg/kg/day | NEL [3, 21]: 33.1 mg/kg/day | NOAEL [3, 21]: 33.1 mg/kg/day | LEL [4, 22]: 14.4 mg/kg/day | LOAEL [4, 22]: > 59.4 mg/kg/day | NEL [4, 22]: 3.5 mg/kg/day | NOAEL [4, 22]: ≥ 59.4 mg/kg/day | LOAEL [4, 23]: 3.5 mg/kg/day | NOAEL [4, 23]: < 3.5 mg/kg/day | LEL [4, 24]: 3.5 mg/kg/day | NEL [4, 24]: < 3.5 mg/kg/day | LEL [5, 25]: 35 mg/kg/day | LOAEL [5, 25]: 35 mg/kg/day | NEL [5, 26]: 10 mg/kg/day | NOAEL [5, 26]: 10 mg/kg/day | LEL [5, 27]: 35 mg/kg/day | LOAEL [5, 27]: 35 mg/kg/day | NEL [5, 27]: 10 mg/kg/day | NOAEL [5, 27]: 10 mg/kg/day | LEL [6, 28]: 4.1 mg/kg/day | NEL [6, 28]: < 4.1 mg/kg/day | LOAEL ([6]; systemic / pathology microscopic / liver / hypertrophy + systemic / pathology microscopic / liver / vacuolization): 40.9 mg/kg/day | NOAEL ([6]; systemic / pathology microscopic / liver / hypertrophy + systemic / pathology microscopic / liver / vacuolization + systemic / hematology / …): 4.1 mg/kg/day | LEL [7, 29]: 100 mg/kg/day | LOAEL [7, 29]: 100 mg/kg/day | NEL [7, 30]: 50 mg/kg/day | NOAEL [7, 30]: 50 mg/kg/day | LEL [7, 27]: 100 mg/kg/day | LOAEL [7, 27]: 100 mg/kg/day | NEL [7, 27]: 50 mg/kg/day | NOAEL [7, 27]: 50 mg/kg/day | LEL [8, 31]: 1.4 mg/kg/day | NEL [8, 31]: < 1.4 mg/kg/day | LOAEL [8, 32]: 176 mg/kg/day | NOAEL [8, 32]: 15.3 mg/kg/day | LOAEL [9, 33]: 397 mg/kg/day | NEL [9, 33]: 3.8 mg/kg/day | NOAEL [9, 33]: 40.3 mg/kg/day | LEL ([9]; systemic / organ weight / liver / relative to body weight + systemic / urinalysis / glucose / glucose): 40.3 mg/kg/day | LEL [10]: 34.1 mg/kg/day | LOAEL [10]: 34.1 mg/kg/day | NEL [10]: 10 mg/kg/day | NOAEL [10]: 10 mg/kg/day

COC(=O)c1cccc(C)c1S(=O)(=O)NC(=O)Nc1nc(OCC(F)(F)F)nc(N(C)C)n1 [Triflusulfuron-methyl]
LEL [11, 34]: 7.71 mg/kg/day | NEL [11, 34]: < 7.71 mg/kg/day | LOAEL ([11]; systemic / in life observation / body weight / body weight gain + systemic / in life observation / food consumption / food efficiency): 133 mg/kg/day | NOAEL ([11]; systemic / in life observation / body weight / body weight gain + systemic / in life observation / food consumption / food efficiency + …): 6.56 mg/kg/day | LEL [12]: 147 mg/kg/day | LOAEL [12]: 147 mg/kg/day | NEL [12]: 3.9 mg/kg/day | NOAEL [12]: 3.9 mg/kg/day | LEL [13]: 30.6 mg/kg/day | LOAEL [13]: 30.6 mg/kg/day | NEL [13]: 4.06 mg/kg/day | NOAEL [13]: 4.06 mg/kg/day | LEL [14, 35]: 26.9 mg/kg/day | NEL [14, 35]: 1 mg/kg/day | LOAEL ([14]; systemic / organ weight / liver / relative to body weight + systemic / pathology microscopic / liver / hypertrophy): 95.5 mg/kg/day | NOAEL ([14]; systemic / organ weight / liver / relative to body weight + systemic / pathology microscopic / liver / hypertrophy + systemic / clinical …): 27.7 mg/kg/day | LEL [15, 36]: 270 mg/kg/day | LOAEL [15, 36]: 270 mg/kg/day | NEL [15, 36]: 90 mg/kg/day | NOAEL [15, 36]: 90 mg/kg/day | LEL [15, 37]: 270 mg/kg/day | LOAEL [15, 37]: 270 mg/kg/day | NEL [15, 37]: 90 mg/kg/day | NOAEL [15, 37]: 90 mg/kg/day | LEL [16]: 349 mg/kg/day | LOAEL [16]: 349 mg/kg/day | NEL [16]: 20.9 mg/kg/day | NOAEL [16]: 20.9 mg/kg/day | LEL [17]: 127 mg/kg/day | LOAEL [17]: 127 mg/kg/day | NEL [17]: 6.2 mg/kg/day | NOAEL [17]: 6.2 mg/kg/day
